Earlier results as cited in US20060246153A1, “Herbal compositions for the teatment and prevention of prostate disorders” (priority 2003, published 2006).

System: localised prostate adenocarcinoma
Conditions: 28 mg a day in the diet for three weeks

CC(C)=CCC/C(C)=C/C=C/C(C)=C/C=C/C(C)=C/C=C/C=C(C)/C=C/C=C(C)/C=C/C=C(\C)CCC=C(C)C [lycopene]
oxidative damage to the DNA of the post-operative biopsy tissue: greatly reduced | plasma levels of PSA (prostate-specific antigen): reduced
